Data on 2 compounds can be found in article PMC6968488, “In vitro and in vivo evaluation of didymin cyclodextrin inclusion complexes: characterization and chemosensitization activity” (Drug Delivery, 2019).

One series relates to MCF-7/ADR tumor. Nature of the series: In vivo antitumor efficacy in mice bearing resistant tumors. On the set-up: species or system BALB/c nude mice. Conditions: DOX 5 mg/kg/3 days i.p.; Didymin/HP-β-CD 20 mg/kg/day i.g.; 14 days. How it is done:
To further investigate the chemosensitivity of […] inclusion complex, female BALB/c nude mice (5-6 weeks old, Shanghai Laboratory Animal Center, China) were injected subcutaneously with MCF-7/ADR cells (10^7 cells/per mouse). […] (1) Control group, 0.9% saline (0.2 mL/kg/day, i.p.); (2) DOX group, DOX (5 mg/kg/3 days, i.p.); (3) DOX + […] group, DOX (5 mg/kg/3 days, […] was given by oral gavage (i.g.) while DOX was intraperitoneal injected (i.p.). DOX injection was performed 30 min after the […] by gavage. The mouse weight and tumor volume were measured every day. The tumor volume was obtained using the formula (Yao et al., [2019]). On day 14, the mice were sacrificed, and tumor tissues were collected, fixed and sliced for pathological examination (H&E staining, Ki67 immunohistochemical staining, and TUNEL assay).

Series [1] deals with MCF-7/ADR cells. Briefly: MTT cytotoxicity / chemosensitivity assay, resistant tumor cells. It is filed as cell-based. How it is done: (§1) The cytotoxicity of didymin on various cell lines was examined by MTT assay as previously reported (Yao et al., [2019]). The didymin solution was prepared by dissolving in DMSO at different concentrations and diluted with the fresh medium right before the treatment. The didymin inclusion complex was dispersed in the sterilized water and then diluted with the fresh medium before treatment. Experiments involving healthy cells (HUVEC, H9C2, and PC12) by culturing 100 μL cell suspension (5 × 10^4 cell/mL) in 96 well plates. After 24 h incubation, the didymin or didymin inclusion complexes contained medium was used to replace the overnight medium and cultured for 48 h, respectively. After that, the MTT solution at the concentration of 5 mg/mL was added to each well. After 4 h incubation, the medium was removed, and the MTT formazan was dissolved by DMSO. Then the DMSO solution is measured using a microplate reader with the absorbance wavelength at 570 nm. The untreated cells were used as control. The cell viability (%) was calculated as follows, cell viability (%) = Asample/Acontrol ×100.
(§2) The MCF-7 and MCF-7/ADR cells cytotoxicity of the combination of didymin and doxorubicin were evaluated by MTT assay, as mentioned above.

A short description of series [2]: Solubility study of didymin in different media (HPLC). To be noted: for solubility at 72 h: thermodynamic from solid, room temperature, 72 h stirring. It counts as physicochemical. As to the method:
Add excess didymin into a different medium (water, ethanol, methanol, 1% β-CD, and 1% HP-β-CD), and keep stirring at room temperature for 72 h. After that, 1.5 mL of the suspension was taken for centrifugation to take the supernatant. After filtering with a […] filter membrane (Shanghai Boguang Biotechnology Co., Ltd, Shanghai, China), the concentration of each solution was measured by the HPLC method.
An analytical HPLC method was developed to determine the concentration of didymin. The chromatographic conditions are: Agilent HC-C18 column (4.6 mm × 250 mm, 5 μm) (Agilent Technologies, Inc., Santa Clara, CA, USA), the mobile phase was phosphate buffer (pH 6.8)–methanol (45:55), the detection wavelength was 283 nm, the column temperature was 25 °C, and the flow rate was 1.0 mL/min, and. The samples were filtered (0.45 μm) and deaerated before use.

The subject of the next series is MCF-7 cells. Nature of the series: MTT cytotoxicity / chemosensitivity assay, sensitive tumor cells. It is filed as cell-based. To be noted: MCF-7, without DOX, tested concentrations. How it is done:
as §1, §2

Series [3] in a line: MTT cytotoxicity assay on healthy cells. It is filed as cell-based. To be noted: all tested concentrations 10 μM∼200 μM, read-out: cell viability. As to the method:
as §1
(Tetrazolium dyes change colour on reduction, which living cells bring about.)

For series [4], the system named is MCF-7/ADR cells. Nature of the series: Intracellular uptake study of DOX. It is filed as cell-based. Conditions: DOX 10 μM, 4 h, fluorescence microscopy and quantitative analysis. How it is done:
The effect of didymin on the intracellular uptake of the P-gp substrate was conducted as previously reported (Dai et al., [2016]; Yao et al., [2019]). Briefly, MCF-7/ADR cells were seeded in a 6-well plate at 4 × 10^5 cell/mL overnight before the experiment. Then the cancer cells were incubated with DOX (10 μM) at a concentration with or without didymin formulations for 4 h. Then, the treated cells were washed with ice-cold PBS three times and recorded under fluorescence microscopy (Nikon, Tokyo, Japan). In an independent study, after treatment, the cells were washed with ice-cold PBS and then lysed. Then acetonitrile was added into the cell lysate to extract the didymin via protein precipitation (PP)/extraction method. The didymin concentration in the supernatant was determined by the previously validated HPLC method.

The nature of series [5]: Pharmacokinetic study after oral administration. It counts as in vivo. To be noted: male, rat, plasma, SD rats, 25 mg/kg. As to the method:
All animal experiments were carried out under the Guide for Care and Use of Laboratory Animals and approved by the approval of the Ethics Committee of Wenzhou Medical University. Male SD rats ([…], Shanghai Laboratory Animal Center, China) weighing 220–250 g (n = 6 per group) were studied in the pharmacokinetic study. Free didymin and two types of didymin inclusion complexes (25 mg/kg, respectively) were orally administered with sterilized water. Then blood samples were collected from the orbit venous plexus at predetermined time intervals. The blood samples were then centrifuged at 15000 r/min for 10 min, then dried at 40 °C under nitrogen flow to solid-phase extraction. Methanol was added to dissolve the residue. Then the concentration of didymin in plasma was determined by HPLC methods and calculated the pharmacokinetic parameters.

The target of a further series is T1, P-gp transporter (Homo sapiens, UniProt P08183).
T1 construct: endogenous in cells; host or cells: MCF-7/ADR cells
Briefly: Calcein-AM extrusion assay. It counts as cell-based. To be noted: MCF-7/ADR, 30 min pre-incubation then calcein-AM 30 min. As to the method: The effect of didymin and its inclusion complex on the efflux function of P-gp transporter was studied using calcein-AM extrusion assay as reported (Dai et al., [2016]). Briefly, MCF-7/ADR cells were seeded in a 6-well plate at 2 × 10^5 cell/mL overnight before the experiment. The cancer cell was incubated with verapamil or didymin formulations for 30 min and then treated with calcein-AM for another 30 min. Then, the treated cells were washed with ice-cold PBS three times and recorded under fluorescence microscopy. In an independent study, after treatment, the cells were washed, trypsinized, and collected by centrifuge. The collected cells were then washed with PBS and analyzed by flow cytometry (BD Bioscience, Franklin Lakes, NJ, USA). The data was collected with 1 × 10^5 events counter per samples

The nature of the next series: Acute toxicity study. It is filed as in vivo, BALB/c mice. Conditions: mice, single oral dose 250 mg/kg. As to the method: An acute toxicity test was conducted as previously reported (Kandhare et al., [2016]). In brief, the BALB/c mice weighing about 18–22 g were administrated of didymin at a single dose of 250 mg/kg using oral gastric gavages. […] On 15th day animals were sacrificed, and the major organs were collected, fixed, and sliced for H&E staining.

Each structure is given as a SMILES string. Values after ≈ are worked out from the molar mass of the structure shown. Where two headings read alike, the source gives them in different places.

As a reminder, the IC50 is the concentration at which inhibition is half-maximal. Usually solubility stands for the dissolved amount per volume that the medium holds. As usually defined, the viability is the share of living cells, or the viability signal relative to a control. A word on the Cmax: it is the peak of the concentration-time curve. One may read the Tmax as the time from dosing to the highest level. A word on the half-life: it is how long it takes for the measured level to halve. Lower therefore signals rapid decline.

T1 sequence (P08183 whole entry): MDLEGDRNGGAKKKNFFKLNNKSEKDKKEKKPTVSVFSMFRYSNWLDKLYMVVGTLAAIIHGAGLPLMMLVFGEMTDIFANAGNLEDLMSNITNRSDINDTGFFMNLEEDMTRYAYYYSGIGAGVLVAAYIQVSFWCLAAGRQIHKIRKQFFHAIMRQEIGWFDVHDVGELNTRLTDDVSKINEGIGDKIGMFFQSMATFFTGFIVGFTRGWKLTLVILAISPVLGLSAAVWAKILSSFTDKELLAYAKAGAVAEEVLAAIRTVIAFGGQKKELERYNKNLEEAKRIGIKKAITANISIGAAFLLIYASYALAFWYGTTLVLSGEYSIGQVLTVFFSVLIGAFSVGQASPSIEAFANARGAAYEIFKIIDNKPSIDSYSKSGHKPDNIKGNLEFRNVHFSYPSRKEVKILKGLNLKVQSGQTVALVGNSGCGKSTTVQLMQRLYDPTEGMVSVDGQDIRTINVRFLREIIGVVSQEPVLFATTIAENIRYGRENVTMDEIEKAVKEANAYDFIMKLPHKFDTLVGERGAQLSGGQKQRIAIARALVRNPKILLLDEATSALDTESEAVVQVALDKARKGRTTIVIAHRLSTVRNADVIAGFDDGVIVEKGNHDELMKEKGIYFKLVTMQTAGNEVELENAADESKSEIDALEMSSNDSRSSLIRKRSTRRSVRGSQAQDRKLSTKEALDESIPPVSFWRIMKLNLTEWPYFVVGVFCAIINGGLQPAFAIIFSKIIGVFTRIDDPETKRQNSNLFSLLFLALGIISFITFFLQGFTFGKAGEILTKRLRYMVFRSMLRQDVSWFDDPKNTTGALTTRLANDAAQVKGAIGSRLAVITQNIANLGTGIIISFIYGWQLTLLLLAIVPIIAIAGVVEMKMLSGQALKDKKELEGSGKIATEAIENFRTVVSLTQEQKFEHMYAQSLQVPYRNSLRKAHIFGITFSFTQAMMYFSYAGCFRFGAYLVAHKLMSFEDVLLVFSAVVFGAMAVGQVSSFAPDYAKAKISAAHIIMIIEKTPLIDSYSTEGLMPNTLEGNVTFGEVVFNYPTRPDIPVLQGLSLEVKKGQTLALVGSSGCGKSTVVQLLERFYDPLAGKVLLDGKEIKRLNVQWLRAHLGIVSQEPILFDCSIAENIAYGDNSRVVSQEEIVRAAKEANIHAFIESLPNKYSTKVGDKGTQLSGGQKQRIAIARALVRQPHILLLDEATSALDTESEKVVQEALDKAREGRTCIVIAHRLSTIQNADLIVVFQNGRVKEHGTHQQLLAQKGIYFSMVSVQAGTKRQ

The compound `COc1cccc2c1C(=O)c1c(O)c3c(c(O)c1C2=O)C[C@@](O)(C(=O)CO)C[C@@H]3O[C@H]1C[C@H](N)[C@H](O)[C@H](C)O1` [DOX, doxorubicin, reference compound] had a tumor growth inhibition in the series on MCF-7/ADR tumor of 34%. Besides, the IC50 in the series with MCF-7/ADR cells [1] (Homo sapiens, NCI/ADR-RES, free DOX) is over 20 µM.
Regarding `COc1ccc(C2CC(=O)c3c(O)cc(OC4OC(COC5OC(C)C(O)C(O)C5O)C(O)C(O)C4O)cc3O2)cc1` (stereo not drawn) [didymin, isosakuranetin-7-beta-rutinoside], the solubility at 72 h in series [2] (aqueous with cosolvent or surfactant or cyclodextrin, 1% HP-β-CD solution, read-out: solubility in 1% HP-β-CD solution) was 735 ± 370 µg/mL (≈ 1240 µM); in series [2] (organic solvent or mixture, ethanol, read-out: solubility in ethanol) it was 1240 ± 720 µg/mL (≈ 2090 µM); in series [2] (organic solvent or mixture, methanol, read-out: solubility in methanol) it was 11200 ± 1190 µg/mL (≈ 18900 µM); in series [2] (water, read-out: solubility in water), 107 ± 120 µg/mL (≈ 180 µM). The “increase of aqueous solubility compared to free didymin” value in [2] (presence of HP-β-CD) was found to be 6.9 times; in series [2] (presence of β-CD), 4.7 times. For the same compound, the cytotoxicity alone result with MCF-7 cells was “did not exert toxicity on cancer cells”; in the series with MCF-7/ADR cells [1] (without DOX, tested concentrations), “did not exert toxicity on cancer cells”. In addition, the viability at 48 h is over 90% in series [3] (human, HUVEC cells); over 90% in series [3] (rat, H9C2 cells, H9C2, 48 h); over 90% in series [3] (rat, PC12 cells, PC12, 48 h). Further, the DOX intracellular accumulation entry in the series with MCF-7/ADR cells [4] is “increase the DOX intracellular accumulation”. The maximum concentration (Cmax) in series [5] was 2770 ng/mL. The Tmax in [5] was 11.4 ± 3 min. This compound gave a half-life in series [5] of 105 ± 9.6 min. The AUC(0-t) in series [5] (read-out: AUC0–12 h) worked out at 5910 ng·h/mL. Besides, the “P-gp efflux function (intracellular calcein fluorescence)” value on P-gp transporter is “significantly inhibit the function of P-gp transporter”. For the same compound, the “abnormal behaviors and weight change in the observation period” value in the series “Acute toxicity study” (14 days) is “did not show any abnormal behaviors and weights change”. Further, the “H&E staining of major organs” value in the series “Acute toxicity study” (after 14 days) is listed as “no signs of any toxicity”.
